Data: the kinase profiling compilation of Christmann-Franck et al. (2016)

Columns and labels:
Assay in all cases: KINOMEscan competition binding
Settings in all cases: compound 10.0 µM
BRAF (human) = BRAF (human) (UniProt P15056)
CDK2 (human) = CDK2 (human) (UniProt P24941)
CDKL1 (human) = CDKL1 (human) (UniProt Q00532)
CRK2 (P.falciparum) = CRK2 (P.falciparum) (UniProt P61075)
DYRK2 (human) = DYRK2 (human) (UniProt Q92630)
EIF2AK1 (human) = EIF2AK1 (human) (UniProt Q9BQI3)
EPHB6 (human) = EPHB6 (human) (UniProt O15197)
ERBB3 (human) = ERBB3 (human) (UniProt P21860)
ERN1 (human) = ERN1 (human) (UniProt O75460)
ERN1 (human), sequence (O75460 whole entry, looked up): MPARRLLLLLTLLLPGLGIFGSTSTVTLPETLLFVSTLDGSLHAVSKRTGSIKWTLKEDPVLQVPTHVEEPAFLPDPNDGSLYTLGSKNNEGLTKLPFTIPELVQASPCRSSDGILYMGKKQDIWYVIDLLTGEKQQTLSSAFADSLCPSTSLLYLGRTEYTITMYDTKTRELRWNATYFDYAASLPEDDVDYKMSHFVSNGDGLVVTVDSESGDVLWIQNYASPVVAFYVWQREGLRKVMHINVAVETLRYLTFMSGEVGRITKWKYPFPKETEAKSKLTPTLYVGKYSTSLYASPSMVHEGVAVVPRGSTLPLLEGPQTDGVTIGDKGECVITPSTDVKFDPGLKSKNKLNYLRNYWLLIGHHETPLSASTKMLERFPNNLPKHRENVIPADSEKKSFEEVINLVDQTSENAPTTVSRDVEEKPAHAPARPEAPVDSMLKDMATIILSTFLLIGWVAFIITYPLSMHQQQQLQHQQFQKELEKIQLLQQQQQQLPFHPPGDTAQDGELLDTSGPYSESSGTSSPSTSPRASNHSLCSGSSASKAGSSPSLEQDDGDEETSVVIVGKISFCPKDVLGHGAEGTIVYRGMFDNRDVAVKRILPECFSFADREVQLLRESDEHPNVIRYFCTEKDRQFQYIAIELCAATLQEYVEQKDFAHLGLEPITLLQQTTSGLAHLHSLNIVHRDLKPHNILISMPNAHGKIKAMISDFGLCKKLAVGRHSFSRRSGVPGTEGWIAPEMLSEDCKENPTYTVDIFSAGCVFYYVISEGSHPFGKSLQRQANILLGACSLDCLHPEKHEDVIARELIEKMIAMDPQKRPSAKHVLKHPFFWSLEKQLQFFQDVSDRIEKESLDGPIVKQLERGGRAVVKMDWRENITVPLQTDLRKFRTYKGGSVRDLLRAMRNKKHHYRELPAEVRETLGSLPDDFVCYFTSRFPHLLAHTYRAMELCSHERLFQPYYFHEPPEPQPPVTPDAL

[1] = tested on: FLT3 (human), P36888 [K663Q]
GRK7 (human) = GRK7 (human) (UniProt Q8WTQ7)
HIPK3 (human) = HIPK3 (human) (UniProt Q9H422)
HIPK4 (human) = HIPK4 (human) (UniProt Q8NE63)
LRRK2 (human) = LRRK2 (human) (UniProt Q5S007)
LRRK2 (human), sequence (Q5S007 whole entry, looked up): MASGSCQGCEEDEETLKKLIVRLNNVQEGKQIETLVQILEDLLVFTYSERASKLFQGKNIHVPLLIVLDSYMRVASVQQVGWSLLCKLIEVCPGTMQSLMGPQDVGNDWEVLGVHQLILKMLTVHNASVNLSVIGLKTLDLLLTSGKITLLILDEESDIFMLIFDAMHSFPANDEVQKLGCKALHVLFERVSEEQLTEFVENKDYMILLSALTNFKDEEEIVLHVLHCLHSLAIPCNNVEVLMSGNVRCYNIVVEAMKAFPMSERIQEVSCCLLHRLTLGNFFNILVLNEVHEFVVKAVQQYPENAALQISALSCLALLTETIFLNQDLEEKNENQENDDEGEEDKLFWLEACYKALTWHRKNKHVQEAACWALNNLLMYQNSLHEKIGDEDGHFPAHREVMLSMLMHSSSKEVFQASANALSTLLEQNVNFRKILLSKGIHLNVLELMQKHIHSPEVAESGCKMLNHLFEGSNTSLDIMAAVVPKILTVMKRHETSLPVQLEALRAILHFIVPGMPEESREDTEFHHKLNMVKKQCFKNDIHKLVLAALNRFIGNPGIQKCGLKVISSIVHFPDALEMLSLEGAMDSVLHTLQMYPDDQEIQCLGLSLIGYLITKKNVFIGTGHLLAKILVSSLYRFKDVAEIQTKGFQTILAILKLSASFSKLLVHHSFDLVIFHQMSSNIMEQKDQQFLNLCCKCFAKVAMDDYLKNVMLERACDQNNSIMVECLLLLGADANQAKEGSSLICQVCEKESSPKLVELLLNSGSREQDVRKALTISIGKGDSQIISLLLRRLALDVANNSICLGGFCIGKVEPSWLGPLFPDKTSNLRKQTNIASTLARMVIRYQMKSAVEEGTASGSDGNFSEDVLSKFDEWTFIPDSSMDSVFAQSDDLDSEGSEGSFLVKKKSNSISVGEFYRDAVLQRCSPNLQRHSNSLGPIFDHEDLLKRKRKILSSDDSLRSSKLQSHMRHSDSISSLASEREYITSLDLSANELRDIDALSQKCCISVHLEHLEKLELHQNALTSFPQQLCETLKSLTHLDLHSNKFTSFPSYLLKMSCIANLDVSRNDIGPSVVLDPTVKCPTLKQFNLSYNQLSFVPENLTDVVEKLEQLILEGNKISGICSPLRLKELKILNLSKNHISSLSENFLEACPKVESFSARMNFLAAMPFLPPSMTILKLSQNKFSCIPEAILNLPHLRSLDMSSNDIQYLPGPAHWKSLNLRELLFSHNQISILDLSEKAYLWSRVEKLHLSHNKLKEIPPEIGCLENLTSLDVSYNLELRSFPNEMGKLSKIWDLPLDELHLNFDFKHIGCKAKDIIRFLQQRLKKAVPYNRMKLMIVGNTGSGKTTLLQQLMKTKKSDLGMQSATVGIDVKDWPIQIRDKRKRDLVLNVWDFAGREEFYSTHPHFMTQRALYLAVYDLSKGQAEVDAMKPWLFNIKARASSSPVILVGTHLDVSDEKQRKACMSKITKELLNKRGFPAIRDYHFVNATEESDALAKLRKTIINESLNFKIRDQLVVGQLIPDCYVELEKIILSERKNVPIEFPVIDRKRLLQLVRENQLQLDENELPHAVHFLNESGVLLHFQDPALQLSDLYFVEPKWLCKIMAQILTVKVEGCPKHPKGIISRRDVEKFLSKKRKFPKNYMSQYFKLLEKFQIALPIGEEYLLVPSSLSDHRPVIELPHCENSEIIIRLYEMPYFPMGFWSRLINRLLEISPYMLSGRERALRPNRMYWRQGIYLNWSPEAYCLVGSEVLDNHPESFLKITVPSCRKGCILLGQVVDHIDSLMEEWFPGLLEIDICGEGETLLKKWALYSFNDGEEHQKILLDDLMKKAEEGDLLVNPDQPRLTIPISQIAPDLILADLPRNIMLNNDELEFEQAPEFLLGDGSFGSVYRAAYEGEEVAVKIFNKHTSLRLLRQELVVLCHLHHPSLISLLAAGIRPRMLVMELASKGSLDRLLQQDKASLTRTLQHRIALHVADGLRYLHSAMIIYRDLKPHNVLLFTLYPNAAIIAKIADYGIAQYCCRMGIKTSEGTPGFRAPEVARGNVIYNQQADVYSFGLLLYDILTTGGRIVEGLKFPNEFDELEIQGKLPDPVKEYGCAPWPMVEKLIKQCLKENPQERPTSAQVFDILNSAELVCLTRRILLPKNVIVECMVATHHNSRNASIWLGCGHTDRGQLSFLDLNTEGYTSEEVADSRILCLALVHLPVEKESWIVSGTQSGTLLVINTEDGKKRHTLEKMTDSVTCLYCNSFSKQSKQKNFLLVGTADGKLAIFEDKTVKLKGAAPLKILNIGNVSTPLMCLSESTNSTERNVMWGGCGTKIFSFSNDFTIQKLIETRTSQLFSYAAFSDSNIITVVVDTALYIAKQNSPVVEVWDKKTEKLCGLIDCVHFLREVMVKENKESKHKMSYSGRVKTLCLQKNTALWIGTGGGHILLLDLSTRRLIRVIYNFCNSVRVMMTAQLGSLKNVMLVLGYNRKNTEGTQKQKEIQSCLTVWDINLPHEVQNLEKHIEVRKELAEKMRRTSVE

MAP2K7 (human) = MAP2K7 (human) (UniProt O14733)
MAP3K13 (human) = MAP3K13 (human) (UniProt O43283)
MAP3K15 (human) = MAP3K15 (human) (UniProt Q6ZN16)
MAP3K2 (human) = MAP3K2 (human) (UniProt Q9Y2U5)
MAST1 (human) = MAST1 (human) (UniProt Q9Y2H9)
MATK (human) = MATK (human) (UniProt P42679)
NEK11 (human) = NEK11 (human) (UniProt Q8NG66)
NEK3 (human) = NEK3 (human) (UniProt P51956)
OXSR1 (human) = OXSR1 (human) (UniProt O95747)
PI4KB (human) = PI4KB (human) (UniProt Q9UBF8)
[2] = tested on: PIK3CA (human), P42336 [E545K]
PIK3CA (human), P42336 [E545K], sequence (P42336 whole entry E545K, looked up): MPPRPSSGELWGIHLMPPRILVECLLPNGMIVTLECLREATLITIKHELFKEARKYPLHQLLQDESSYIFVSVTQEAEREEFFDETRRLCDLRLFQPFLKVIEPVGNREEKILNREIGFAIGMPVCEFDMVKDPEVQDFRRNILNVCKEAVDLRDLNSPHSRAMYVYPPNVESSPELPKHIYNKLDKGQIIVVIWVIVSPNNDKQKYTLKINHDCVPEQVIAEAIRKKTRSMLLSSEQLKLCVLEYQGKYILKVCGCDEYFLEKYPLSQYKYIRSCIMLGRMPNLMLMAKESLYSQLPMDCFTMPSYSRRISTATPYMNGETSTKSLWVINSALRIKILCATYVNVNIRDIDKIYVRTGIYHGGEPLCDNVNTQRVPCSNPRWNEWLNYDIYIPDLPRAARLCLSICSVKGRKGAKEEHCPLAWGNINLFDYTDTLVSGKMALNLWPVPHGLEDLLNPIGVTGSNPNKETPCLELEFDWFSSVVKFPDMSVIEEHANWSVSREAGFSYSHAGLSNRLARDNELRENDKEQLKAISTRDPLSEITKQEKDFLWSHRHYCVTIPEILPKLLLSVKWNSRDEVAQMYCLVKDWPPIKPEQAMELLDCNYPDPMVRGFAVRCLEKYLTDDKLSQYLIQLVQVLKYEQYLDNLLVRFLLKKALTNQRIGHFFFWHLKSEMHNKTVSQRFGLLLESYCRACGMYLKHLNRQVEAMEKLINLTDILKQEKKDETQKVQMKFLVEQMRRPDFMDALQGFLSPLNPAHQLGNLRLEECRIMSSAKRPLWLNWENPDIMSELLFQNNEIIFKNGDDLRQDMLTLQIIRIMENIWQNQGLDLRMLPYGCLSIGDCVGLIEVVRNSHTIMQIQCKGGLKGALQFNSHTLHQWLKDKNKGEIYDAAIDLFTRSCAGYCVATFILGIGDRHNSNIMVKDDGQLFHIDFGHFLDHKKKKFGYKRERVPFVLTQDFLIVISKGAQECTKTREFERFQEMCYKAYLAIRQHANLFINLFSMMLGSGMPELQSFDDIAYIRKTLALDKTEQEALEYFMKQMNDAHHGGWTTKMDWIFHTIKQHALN

[3] = tested on: PIK3CA (human), P42336 [I800L]
PIK3CA (human), P42336 [I800L], sequence (P42336 whole entry I800L, looked up): as the sequence (P42336 whole entry E545K, looked up) above, with K545E, I800L counted along it

ROCK1 (human) = ROCK1 (human) (UniProt Q13464)
SBK1 (human) = SBK1 (human) (UniProt Q52WX2)
SGK3 (human) = SGK3 (human) (UniProt Q96BR1)
SGK3 (human), sequence (Q96BR1 whole entry, looked up): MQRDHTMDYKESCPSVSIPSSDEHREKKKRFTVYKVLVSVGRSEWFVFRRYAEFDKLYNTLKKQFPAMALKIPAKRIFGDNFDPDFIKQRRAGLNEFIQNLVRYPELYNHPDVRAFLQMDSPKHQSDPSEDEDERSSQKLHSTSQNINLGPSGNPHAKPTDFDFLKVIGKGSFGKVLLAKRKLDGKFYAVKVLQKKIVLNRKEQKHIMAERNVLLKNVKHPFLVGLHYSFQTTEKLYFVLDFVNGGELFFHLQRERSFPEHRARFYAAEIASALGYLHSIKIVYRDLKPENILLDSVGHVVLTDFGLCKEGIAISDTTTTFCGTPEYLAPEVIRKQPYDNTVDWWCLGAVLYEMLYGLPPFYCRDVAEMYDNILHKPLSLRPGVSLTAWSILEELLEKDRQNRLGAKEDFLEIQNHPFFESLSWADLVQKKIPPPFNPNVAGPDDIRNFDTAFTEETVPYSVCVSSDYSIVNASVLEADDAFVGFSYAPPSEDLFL

TBK1 (human) = TBK1 (human) (UniProt Q9UHD2)
TIE1 (human) = TIE1 (human) (UniProt P35590)
[4] = tested on: ABL1 (human), P00519 [E255K]
CSNK1A1 (human) = CSNK1A1 (human) (UniProt P48729)
[5] = tested on: EGFR (human), P00533 [746-750 del]
[6] = tested on: EGFR (human), P00533 [P753S; 747-752 del]
KIT (human) = KIT (human) (UniProt P10721)
[7] = tested on: KIT (human), P10721 [V559D/T670I]
RPS6KB1 (human) = RPS6KB1 (human) (UniProt P23443)
MTOR (human) = MTOR (human) (UniProt P42345)
PIK3CG (human) = PIK3CG (human) (UniProt P48736)

## CCC(=O)N1CCN(c2ccc(-n3c(=O)ccc4cnc5ccc(-c6cnc7ccccc7c6)cc5c43)cc2C(F)(F)F)CC1
BRAF (human)
  kinase still bound, per cent of control: 59%
CDK2 (human)
  kinase still bound, per cent of control: 6.2%
CDKL1 (human)
  kinase still bound, per cent of control: 100%
CRK2 (P.falciparum)
  kinase still bound, per cent of control: 97%
DYRK2 (human)
  kinase still bound, per cent of control: 86%
EIF2AK1 (human)
  kinase still bound, per cent of control: 57%
EPHB6 (human)
  kinase still bound, per cent of control: 80%
ERBB3 (human)
  kinase still bound, per cent of control: 44%
ERN1 (human)
  kinase still bound, per cent of control: 100%
[1]
  kinase still bound, per cent of control: 23%
GRK7 (human)
  kinase still bound, per cent of control: 100%
HIPK3 (human)
  kinase still bound, per cent of control: 86%
HIPK4 (human)
  kinase still bound, per cent of control: 4.6%
LRRK2 (human)
  kinase still bound, per cent of control: 81%
MAP2K7 (human)
  kinase still bound, per cent of control: 100%
MAP3K13 (human)
  kinase still bound, per cent of control: 100%
MAP3K15 (human)
  kinase still bound, per cent of control: 100%
MAP3K2 (human)
  kinase still bound, per cent of control: 62%
MAST1 (human)
  kinase still bound, per cent of control: 93%
MATK (human)
  kinase still bound, per cent of control: 97%
NEK11 (human)
  kinase still bound, per cent of control: 65%
NEK3 (human)
  kinase still bound, per cent of control: 100%
OXSR1 (human)
  kinase still bound, per cent of control: 100%
PI4KB (human)
  kinase still bound, per cent of control: 96%
[2]
  kinase still bound, per cent of control: 0.6%
[3]
  kinase still bound, per cent of control: 0%
ROCK1 (human)
  kinase still bound, per cent of control: 53%
SBK1 (human)
  kinase still bound, per cent of control: 88%
SGK3 (human)
  kinase still bound, per cent of control: 100%
TBK1 (human)
  kinase still bound, per cent of control: 93%
TIE1 (human)
  kinase still bound, per cent of control: 100%

## Nc1ccc(-c2ccc3ncc4ccc(=O)n(-c5cccc(C(F)(F)F)c5)c4c3c2)cn1
[4]
  kinase still bound, per cent of control: 76%
BRAF (human)
  kinase still bound, per cent of control: 73%
CDK2 (human)
  kinase still bound, per cent of control: 67%
CDKL1 (human)
  kinase still bound, per cent of control: 97%
CRK2 (P.falciparum)
  kinase still bound, per cent of control: 100%
CSNK1A1 (human)
  kinase still bound, per cent of control: 94%
DYRK2 (human)
  kinase still bound, per cent of control: 88%
[5]
  kinase still bound, per cent of control: 92%
[6]
  kinase still bound, per cent of control: 98%
EIF2AK1 (human)
  kinase still bound, per cent of control: 91%
EPHB6 (human)
  kinase still bound, per cent of control: 82%
ERBB3 (human)
  kinase still bound, per cent of control: 50%
ERN1 (human)
  kinase still bound, per cent of control: 100%
[1]
  kinase still bound, per cent of control: 18%
GRK7 (human)
  kinase still bound, per cent of control: 60%
HIPK3 (human)
  kinase still bound, per cent of control: 92%
HIPK4 (human)
  kinase still bound, per cent of control: 44%
KIT (human)
  kinase still bound, per cent of control: 55%
[7]
  kinase still bound, per cent of control: 68%
LRRK2 (human)
  kinase still bound, per cent of control: 80%
MAP2K7 (human)
  kinase still bound, per cent of control: 100%
MAP3K13 (human)
  kinase still bound, per cent of control: 100%
MAP3K15 (human)
  kinase still bound, per cent of control: 100%
MAP3K2 (human)
  kinase still bound, per cent of control: 78%
MAST1 (human)
  kinase still bound, per cent of control: 100%
MATK (human)
  kinase still bound, per cent of control: 100%
NEK11 (human)
  kinase still bound, per cent of control: 80%
NEK3 (human)
  kinase still bound, per cent of control: 95%
OXSR1 (human)
  kinase still bound, per cent of control: 100%
[3]
  kinase still bound, per cent of control: 0%
ROCK1 (human)
  kinase still bound, per cent of control: 79%
RPS6KB1 (human)
  kinase still bound, per cent of control: 86%
SBK1 (human)
  kinase still bound, per cent of control: 100%
SGK3 (human)
  kinase still bound, per cent of control: 100%
TBK1 (human)
  kinase still bound, per cent of control: 100%
TIE1 (human)
  kinase still bound, per cent of control: 100%

## CCCS(=O)(=O)Nc1ccc(F)c(C(=O)c2c[nH]c3ncc(-c4ccc(Cl)cc4)cc23)c1F
BRAF (human)
  kinase still bound, per cent of control: 0%
CDKL1 (human)
  kinase still bound, per cent of control: 100%
CRK2 (P.falciparum)
  kinase still bound, per cent of control: 97%
CSNK1A1 (human)
  kinase still bound, per cent of control: 90%
DYRK2 (human)
  kinase still bound, per cent of control: 100%
[6]
  kinase still bound, per cent of control: 78%
EIF2AK1 (human)
  kinase still bound, per cent of control: 60%
EPHB6 (human)
  kinase still bound, per cent of control: 5.8%
ERBB3 (human)
  kinase still bound, per cent of control: 73%
ERN1 (human)
  kinase still bound, per cent of control: 82%
GRK7 (human)
  kinase still bound, per cent of control: 93%
HIPK3 (human)
  kinase still bound, per cent of control: 100%
KIT (human)
  kinase still bound, per cent of control: 0.15%
[7]
  kinase still bound, per cent of control: 60%
LRRK2 (human)
  kinase still bound, per cent of control: 59%
MAP3K13 (human)
  kinase still bound, per cent of control: 100%
MAP3K15 (human)
  kinase still bound, per cent of control: 100%
MAP3K2 (human)
  kinase still bound, per cent of control: 100%
MAST1 (human)
  kinase still bound, per cent of control: 100%
MATK (human)
  kinase still bound, per cent of control: 100%
MTOR (human)
  kinase still bound, per cent of control: 100%
OXSR1 (human)
  kinase still bound, per cent of control: 95%
PI4KB (human)
  kinase still bound, per cent of control: 0.7%
[2]
  kinase still bound, per cent of control: 100%
[3]
  kinase still bound, per cent of control: 93%
PIK3CG (human)
  kinase still bound, per cent of control: 19%
ROCK1 (human)
  kinase still bound, per cent of control: 85%
RPS6KB1 (human)
  kinase still bound, per cent of control: 86%
SBK1 (human)
  kinase still bound, per cent of control: 92%
SGK3 (human)
  kinase still bound, per cent of control: 71%
TBK1 (human)
  kinase still bound, per cent of control: 100%
TIE1 (human)
  kinase still bound, per cent of control: 38%
